{"source": "paper PMC8477192", "about": "“An ionic lock and a hydrophobic zipper mediate the coupling between an insect pheromone receptor BmOR3 and downstream effectors” (The Journal of Biological Chemistry, 2021)", "format_in_all_cases": "cell-based", "key": {"[1]": {"target": "T1, BmOR3 (Bombyx mori, UniProt Q5FBE0)", "T1 sequence (Q5FBE0 entry or part of it)": "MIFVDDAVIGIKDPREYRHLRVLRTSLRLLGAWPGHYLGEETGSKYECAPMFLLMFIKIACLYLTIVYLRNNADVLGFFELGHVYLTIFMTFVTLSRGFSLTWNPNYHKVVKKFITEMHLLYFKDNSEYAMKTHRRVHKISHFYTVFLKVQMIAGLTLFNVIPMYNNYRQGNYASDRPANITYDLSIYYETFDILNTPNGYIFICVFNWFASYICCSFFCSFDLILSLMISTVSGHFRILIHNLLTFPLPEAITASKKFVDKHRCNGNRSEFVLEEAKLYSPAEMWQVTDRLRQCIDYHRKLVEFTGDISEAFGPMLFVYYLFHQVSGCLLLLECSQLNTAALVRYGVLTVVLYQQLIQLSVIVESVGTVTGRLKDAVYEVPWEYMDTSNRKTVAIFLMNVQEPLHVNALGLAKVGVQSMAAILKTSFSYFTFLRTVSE", "experiment": "G protein recruitment BRET assay (Gi-Rluc to YFP-BmOR3)", "details": "HEK293 cells, 2 min stimulation", "protocol": "Gi1-Rluc, Gi2-Rluc, and Gi3-Rluc plasmids were constructed according to previous report ([30]). HEK293 cells were transiently cotransfected with N-terminal YFP-tagged BmOR3 together with Gi-Rluc plasmids. Twenty-four hours after transfection, cells were distributed into a 96-well microplate. After another 24 h, the cells were stimulated with an increasing amount of bombykal for 2 min. The light emission of Rluc (485 nm) and YFP (530 nm) was measured after the addition of the Rluc substrate coelenterazine h (5 μM) using a Mithras LB 940 multimode reader (Berthold Technologies). The BRET signal was calculated as the ratio of emission of YFP to Rluc. The net BERT value was calculated by subtracting the BRET signal obtained in the cells transfected with Rluc-Gi plasmids only."}, "[2]": {"target": "T1, BmOR3", "experiment": "G protein dissociation BRET assay (TRUPATH probes)", "protocol": "The Gi, Gq, Go, Gs, and Gz dissociation BRET probes were from the TRUPATH kit, which was a gift from Bryan Roth (Addgene kit #1000000163 ([31])). HEK293 cells were cotransfected with BmOR3 along with specific G protein BRET probes. After 24 h, the cells were reseeded in 96-well microplates and incubated for another 24 h. The cells were washed twice with Hank's balanced salt solution and stimulated with bombykal at different concentrations for 2 min. The light emission of Rluc8 (400 nm) and GFP10 (510 nm) was measured after the addition of the substrate coelenterazine 400a (5 μM) using a Mithras LB 940 multimode reader (Berthold Technologies). The BRET signal was calculated as the ratio of light emission at 510/400 nm."}, "[3]": {"target": "T1, BmOR3", "experiment": "Arrestin recruitment BRET assay", "details": "HEK293 cells, 10 min stimulation", "protocol": "HEK293 cells were transiently cotransfected with the N-terminal YFP-tagged BmOR3 together with N-terminal Rluc-fused β-arrestin-1, β-arrestin-2, or BmArr plasmids. Twenty-four hours after transfection, cells were distributed into a 96-well microplate and incubated for additional 24 h. The cells were stimulated with varying concentrations of bombykal for 10 min, and the BRET signal between YFP (530 nm) and Rluc (485 nm) was measured after the addition of the Rluc substrate coelenterazine h (5 μM) using a Mithras LB 940 multimode reader (Berthold Technologies). The BRET signal was calculated as the ratio of emission of YFP to Rluc."}, "[4]": {"target": "T1, BmOR3", "experiment": "BRET-based internalization assay (Rluc-BmOR3 / Lyn-YFP)", "details": "HEK293 cells; 1 μM, 20 min", "protocol": "BRET-based internalization assay was performed as previously described ([57]). Briefly, HEK293 cells treated with Ctrl or β-arrestin-1/2 siRNA, or pretransfected with BmArr, were transiently transfected with N-terminal Rluc-fused BmOR3 and plasma membrane marker Lyn-YFP. Twenty-four hours after transfection, the cells were detached and distributed into a 96-well microplate. After another 24-h incubation at 37 °C, the cells were stimulated with vehicle or 1 μM bombykal at 37 °C for 20 min. Rluc substrate coelenterazine h was added at a final concentration of 5 μM before light emissions of YFP and Rluc were recorded using a Mithras LB 940 microplate reader (Berthold Technologies). The BRET signal was calculated as the ratio of emission of YFP to Rluc."}, "[5]": {"target": "T1, BmOR3", "experiment": "Western blotting of ERK and SRC phosphorylation", "details": "BmOR3-expressing HEK293 cells; 1 μM, 15 min; abrogated in β-arrestin siRNA-transfected cells", "protocol": "HEK293 cells transfected with BmOR3 in the absence or presence of βarrestin1/2 siRNA were starved for 12 h at 37 °C before stimulated with 1 μM bombykal for 15 min. The cells were lysed in ice-cold lysis buffer (50 mM Tris-HCl, pH 7.4, 150 mM NaCl, 1 mM NaF, 1% Triton, 2 mM EDTA, 1% NP-40, 1% protease and phosphatase inhibitor cocktail), and the supernatant was collected after centrifugation. Proteins were separated by PAGE and transferred to PVDF membrane. After blocking in PBS containing 5% bovine serum albumin and 0.1% Tween-20, the membrane was incubated with the primary antibody at 4 °C overnight, followed by incubation with HRP conjugate–secondary antibody at RT for an hour. The signals were detected with the ECL system (Thermo Fisher Scientific). Primary antibodies were as follows: anti-ERK (Santa Cruz, Cat. No. sc-154); anti-pERK (Proteintech, Cat. No. 15361-1-AP); anti-SRC (Cell Signaling Technology, Cat. No. 2109S); anti-pSRC(Y416) (Cell Signaling Technology, Cat. No. 2101S); anti-beta actin (ORIGENE, Cat. No. TA811000); anti-βarrestin1(Proteintech, Cat. No. 15361-1-AP); anti-βarrestin2 (Proteintech, Cat. No. 10171-1-AP)."}, "[6]": {"target": "T1, BmOR3", "experiment": "GloSensor cAMP assay", "details": "BmOR3-transfected HEK293 cells, not in mock cells; 1 μM forskolin", "protocol": "The GloSensor cAMP assay was performed as previously described ([40], [55], [56]). Briefly, HEK293 cells were transfected with the BmOR3 plasmid or empty vector pcDNA3.1 together with the GloSensor plasmid. 24 h after transfection, cells were distributed into 96-well microplates at a density of 50,000 cells/well. After another 24 h, the cells were incubated with DMEM containing 2% (v/v) GloSensor cAMP reagent for 2 h at 37 °C. Cells were then treated with varying concentrations of bombykal followed by the stimulation of 1 μM forskolin. The luminescence intensity was measured using an EnVision multi-label microplate detector (PerkinElmer)."}}, "data": [{"smiles": "CCC/C=C\\C=C\\CCCCCCCCC=O", "note": "[bombykal]", "values": [{"measurement": "EC50", "setting": "[1]; Gi1, read-out: EC50 of coupling of Rluc-tagged Gi1 to YFP-fused BmOR3", "value": "0.0117 ± 0.00119", "unit": "µM"}, {"measurement": "EC50", "setting": "[1]; Gi2, read-out: EC50 of coupling of Rluc-tagged Gi2 to YFP-fused BmOR3", "value": "0.022 ± 0.00322", "unit": "µM"}, {"measurement": "EC50", "setting": "[1]; Gi3, read-out: EC50 of coupling of Rluc-tagged Gi3 to YFP-fused BmOR3", "value": "0.0106 ± 0.00206", "unit": "µM"}, {"measurement": "Go activation", "setting": "[2]; HEK293 cells transfected with BmOR3, Go probes", "value": "did not induce"}, {"measurement": "Gq activation", "setting": "[2]; HEK293 cells transfected with BmOR3, Gq probes", "value": "did not induce"}, {"measurement": "Gs activation", "setting": "[2]; HEK293 cells transfected with BmOR3, Gs probes", "value": "did not induce"}, {"measurement": "Gz activation", "setting": "[2]; HEK293 cells transfected with BmOR3, Gz probes", "value": "did not induce"}, {"measurement": "EC50", "setting": "[2]; HEK293 cells, Gi BRET probes, 2 min stimulation, read-out: EC50 of Gi activation through BmOR3 (decrease of the BRET signal)", "value": "0.0164 ± 0.00504", "unit": "µM"}, {"measurement": "EC50", "setting": "[3]; BmArr1, read-out: potency of recruitment of BmArr1 to BmOR3 (concentration-dependent)", "value": "0.09 ± 0.0111", "unit": "µM"}, {"measurement": "EC50", "setting": "[3]; β-arrestin-2, read-out: potency of recruitment of β-arrestin-2 to BmOR3 (concentration-dependent)", "value": "0.151 ± 0.0213", "unit": "µM"}, {"measurement": "BmOR3 internalization (BRET signal between Rluc-BmOR3 and Lyn-YFP)", "setting": "[4]", "value": "significant decrease in the BRET signal"}, {"measurement": "phosphorylation level of ERK", "setting": "[5]", "value": "significantly elevated"}, {"measurement": "phosphorylation level of SRC", "setting": "[5]", "value": "significantly elevated"}, {"measurement": "forskolin-induced cAMP", "setting": "[6]", "value": "concentration-dependent decrease"}]}]}
